In the NIST ThermoML archive (doi:10.1016/j.tca.2013.11.010):

Tests used:
[1] = for viscosity / speed of sound / mass density: 101.33 kPa; for viscosity / speed of sound / mass density / vapor or sublimation pressure: Liquid; for viscosity: Capillary tube (Ostwald / Ubbelohde) method; for speed of sound: Sing-around technique in a fixed-path interferometer; for mass density: Vibrating tube method; for vapor or sublimation pressure: Ebulliometric method (Recirculating still); for surface tension liquid-gas: Drop volume
[2] = refractive index (Na D-line) (dimensionless); details: 101.33 kPa, Liquid, Standard Abbe refractometry
[3] = relative permittivity at various frequencies (dimensionless); details: 101.3 kPa, Liquid, Frequency=2 MHz, Parallel plate capacitor

CCOC(=O)C(C)O (racemic) [DL-ethyl lactate]
Details	mass density [kg/m3]	refractive index	relative permittivity	speed of sound [m/s]	surface tension liquid-gas [mN/m]	vapor or sublimation pressure [kPa]	viscosity [mPa·s]
[1], 328.15 K	995.193	–	–	1168.4	–	2.015	1.196
[1], 330.65 K	992.389	–	–	1159.1	25.92	–	1.14
[1], 333.15 K	989.579	–	–	1149.9	25.48	2.717	1.087
[1], 335.65 K	986.763	–	–	1140.7	25.32	–	1.037
[1], 338.15 K	983.942	–	–	1131.6	25.05	3.523	0.9907
[1], 343.15 K	–	–	–	–	–	4.591	–
[1], 348.15 K	–	–	–	–	–	5.851	–
[1], 353.15 K	–	–	–	–	–	7.323	–
[1], 358.15 K	–	–	–	–	–	9.29	–
[1], 363.15 K	–	–	–	–	–	11.49	–
[1], 368.15 K	–	–	–	–	–	14.19	–
[1], 373.15 K	–	–	–	–	–	17.37	–
[1], 378.15 K	–	–	–	–	–	21.11	–
[1], 383.15 K	–	–	–	–	–	25.51	–
[1], 388.15 K	–	–	–	–	–	30.62	–
[1], 393.15 K	–	–	–	–	–	36.24	–
[1], 398.15 K	–	–	–	–	–	42.71	–
[1], 403.15 K	–	–	–	–	–	50.4	–
[1], 408.15 K	–	–	–	–	–	59.11	–
[1], 413.15 K	–	–	–	–	–	69.13	–
[1], 418.15 K	–	–	–	–	–	80.2	–
[1], 423.15 K	–	–	–	–	–	92.51	–
[2], 283.15 K	–	1.41751	–	–	–	–	–
[2], 285.65 K	–	1.41644	–	–	–	–	–
[2], 288.15 K	–	1.41528	–	–	–	–	–
[2], 290.65 K	–	1.41414	–	–	–	–	–
[2], 293.15 K	–	1.41301	–	–	–	–	–
[2], 295.65 K	–	1.41188	–	–	–	–	–
[2], 298.15 K	–	1.41074	–	–	–	–	–
[2], 300.65 K	–	1.40959	–	–	–	–	–
[2], 303.15 K	–	1.40843	–	–	–	–	–
[2], 305.65 K	–	1.40729	–	–	–	–	–
[2], 308.15 K	–	1.40615	–	–	–	–	–
[2], 310.65 K	–	1.40501	–	–	–	–	–
[2], 313.15 K	–	1.40381	–	–	–	–	–
[2], 315.65 K	–	1.40267	–	–	–	–	–
[2], 318.15 K	–	1.40152	–	–	–	–	–
[2], 320.65 K	–	1.40036	–	–	–	–	–
[2], 323.15 K	–	1.39918	–	–	–	–	–
[2], 325.65 K	–	1.39798	–	–	–	–	–
[2], 328.15 K	–	1.39684	–	–	–	–	–
[2], 330.65 K	–	1.3956	–	–	–	–	–
[2], 333.15 K	–	1.39448	–	–	–	–	–
[2], 335.65 K	–	1.3933	–	–	–	–	–
[2], 338.15 K	–	1.39215	–	–	–	–	–
[3], 278.15 K	–	–	17.791	–	–	–	–
[3], 280.65 K	–	–	17.538	–	–	–	–
[3], 283.15 K	–	–	17.219	–	–	–	–
[3], 285.65 K	–	–	16.961	–	–	–	–
[3], 288.15 K	–	–	16.736	–	–	–	–
[3], 290.65 K	–	–	16.496	–	–	–	–
[3], 293.15 K	–	–	16.166	–	–	–	–
[3], 295.65 K	–	–	15.961	–	–	–	–
[3], 298.15 K	–	–	15.711	–	–	–	–
[3], 300.65 K	–	–	15.448	–	–	–	–
[3], 303.15 K	–	–	15.18	–	–	–	–
[3], 305.65 K	–	–	14.917	–	–	–	–
[3], 308.15 K	–	–	14.639	–	–	–	–
[3], 310.65 K	–	–	14.373	–	–	–	–
[3], 313.15 K	–	–	14.107	–	–	–	–
[3], 315.65 K	–	–	13.843	–	–	–	–
[3], 318.15 K	–	–	13.573	–	–	–	–
[3], 320.65 K	–	–	13.298	–	–	–	–
[3], 323.15 K	–	–	13.045	–	–	–	–
[3], 325.65 K	–	–	12.786	–	–	–	–
[3], 328.15 K	–	–	12.538	–	–	–	–
[3], 330.65 K	–	–	12.286	–	–	–	–
[3], 333.15 K	–	–	12.044	–	–	–	–
[3], 335.65 K	–	–	11.787	–	–	–	–
[3], 338.15 K	–	–	11.495	–	–	–	–
